Values quoted from earlier work in US20040063658A1, “Nucleoside derivatives for treating hepatitis C virus infection” (priority 2002, published 2004).

Experiments:
HCV = settings: treatment of HCV with interferon, long term efficacy
[1] = patients treated at currently recommended doses

Row | Compound | response rate (HCV) | patients with significant hemolysis [1]
1 | interferon | about 25% | –
2 | NC(=O)c1ncn([C@@H]2O[C@H](CO)[C@@H](O)[C@H]2O)n1 [Ribavirin, 1-β-D-ribofuranosyl-1H-1,2,-4-triazole-3-carboxamide] | – | 10-20%
